Source: paper PMC3390344, “Antibacterial Activity and Mechanism of a Scorpion Venom Peptide Derivative In Vitro and In Vivo” (PLoS ONE, 2012)
Values after ≈ are worked out from the molar mass of the structure shown. Like-named read-outs stand apart in the source and are kept apart here.

Legend:
Format in all cases: cell-based
[1] = tested on: methicillin-resistant coagulase-negative Staphylococcus (MRCNS) P1369; test: microbe, parasite or virus in culture; conditions: Staphylococcus
Procedure: (§1) The MIC was determined via a microdilution assay in 96-well microtiter plates according to the broth microdilution guideline of Clinical and Laboratory Standards Institute (CLSI).

[2] = tested on: methicillin-resistant S. aureus (MRSA) P1374; test: microbe, parasite or virus in culture
Procedure: (§2) Clinical isolates were obtained from the 302nd military hospital of Beijing, China, including penicillin-resistant S. aureus (PRSA) P1383, penicillin-resistant S. epidermidis (PRSE) P1389, methicillin-resistant S. aureus (MRSA) P1381, P1386 and P1374, methicillin-resistant coagulase-negative Staphylococcus (MRCNS) P1369, and penicillin-sensitive S. epidermidis (PSSE) P1111.
as §1

[3] = tested on: methicillin-resistant S. aureus (MRSA) P1386; test: microbe, parasite or virus in culture
Procedure: as §2, §1

[4] = tested on: penicillin-resistant S. epidermidis (PRSE) P1389; test: microbe, parasite or virus in culture
Procedure: as §2, §1

[5] = tested on: penicillin-sensitive S. epidermidis (PSSE) P1111; test: microbe, parasite or virus in culture
Procedure: as §2, §1

[6] = tested on: methicillin-resistant S. aureus (MRSA) P1381; test: microbe, parasite or virus in culture
Procedure: as §2, §1

[7] = tested on: penicillin-resistant S. aureus (PRSA) P1383; test: microbe, parasite or virus in culture
Procedure: as §2, §1

S. aureus AB94004 = test: Enzyme release assay (catalase); conditions: S. aureus AB94004, 37°C; 0.9% saline negative control; Figure 4C
Procedure: (§3) Figure 4 Secondary structure and enzyme release assay of Kn2-7. (A) and (B) Secondary structure analysis of the Kn2-7 and BmKn2 peptides. (A) Circular dichroism spectra of 0.1 mg/mL of Kn2-7 in water, 30% TFE/H2O or 70% TFE/H2O. (B) Circular dichroism spectra of 0.1 mg/mL of BmKn2 in water, 30% TFE/H2O or 70% TFE/H2O. (C) and (D) Enzyme release assay. (C) S. aureus AB94004 treated with Kn2-7 or BmKn2 was harvested, and the catalase activities of the supernatants were measured; 0.9% saline was used as the negative control, and ampicillin sodium was used as the antibiotic control. (D) E. coli AB94012 treated with Kn2-7 or BmKn2 was harvested, and the catalase activities in the supernatants were measured; 0.9% saline was used as the negative control, and kanamycin was used as the antibiotic control.
(§4) Bacterial suspensions and serial-diluted peptides were mixed at a ratio of 4∶1 in different tubes with a final volume of 2 ml. The mixtures were then incubated at 37°C with continuous shaking. At each time point, 200 µl of the treated bacterial suspension was transferred to sterilized tubes. After centrifugation, the supernatants were transferred to a sterilized 1.5-ml tube, and catalase activity was measured with a Catalase Assay Kit (Beyotime, Jiangsu, China) using the method for measuring peroxidase activity.

E. coli AB94012 [8] = test: Growth inhibitory assay (growth curves); conditions: at a concentration of 6.25 µg/mL; Figure 2C
Procedure: Figure 2 Gowth inhibitory activities of Kn2-7. (A) Growth curves of S. aureus AB94004 treated with Kn2-7, BmKn2 or antibiotics. (B) Growth curves of MRSA P1386 treated with Kn2-7, BmKn2 or antibiotics. (C) Growth curves of E. coli AB94012 treated with Kn2-7, BmKn2 or antibiotics.
The time growth curves of S. aureus and MRSA treated with BmKn2 or its derivatives were determined based on measurements taken at 630 nm at each time point. Different concentrations of peptide were added to the tested strains, which were cultured in 96-well plates using the same method as was used for determining the MIC.

E. coli AB94012 [9] = test: Enzyme release assay (catalase); conditions: E. coli AB94012, 37°C; 0.9% saline negative control; Figure 4D
Procedure: as §3, §4

[10] = Staphylococcus epidermidis, read-out: MIC

Compound | MIC [1] | MIC ([2]; Staphylococcus aureus, MRSA) | MIC ([3]; Staphylococcus aureus, MRSA) | MIC ([4]; Staphylococcus epidermidis) | MIC [5, 10] | MIC ([6]; Staphylococcus aureus, MRSA) | MIC ([7]; Staphylococcus aureus) | other results
CO/N=C(\C(=O)N[C@@H]1C(=O)N2C(C(=O)O)=C(COC(C)=O)CS[C@H]12)c1csc(N)n1 [Cefotaxime] | 400 µg/mL (≈ 878 µM) | 400 µg/mL (≈ 878 µM) | 100 µg/mL (≈ 220 µM) | 3.13 µg/mL (≈ 6.87 µM) | 6.25 µg/mL (≈ 13.7 µM) | 400 µg/mL (≈ 878 µM) | 6.25 µg/mL (≈ 13.7 µM) | 
CN[C@H](CC(C)C)C(=O)N[C@H]1C(=O)N[C@@H](CC(N)=O)C(=O)N[C@H]2C(=O)N[C@H]3C(=O)N[C@H](C(=O)N[C@H](C(=O)O)c4cc(O)cc(O)c4-c4cc3ccc4O)[C@H](O)c3ccc(c(Cl)c3)Oc3cc2cc(c3O[C@@H]2O[C@H](CO)[C@@H](O)[C@H](O)[C@H]2O[C@H]2C[C@](C)(N)[C@H](O)[C@H](C)O2)Oc2ccc(cc2Cl)[C@H]1O [Vancomycin] | 6.25 µg/mL (≈ 4.31 µM) | 6.25 µg/mL (≈ 4.31 µM) | 3.13 µg/mL (≈ 2.16 µM) | 6.25 µg/mL (≈ 4.31 µM) | 3.13 µg/mL (≈ 2.16 µM) | 3.13 µg/mL (≈ 2.16 µM) | 6.25 µg/mL (≈ 4.31 µM) | 
CC1(C)S[C@@H]2[C@H](NC(=O)[C@H](N)c3ccccc3)C(=O)N2[C@H]1C(=O)O [ampicillin, reference compound] |  |  |  |  |  |  |  | Catalase activity of the supernatant over time (S. aureus AB94004): increasing catalase activity over time
NC[C@H]1O[C@H](O[C@H]2[C@H](O)[C@@H](O[C@H]3O[C@H](CO)[C@@H](O)[C@H](N)[C@H]3O)[C@H](N)C[C@@H]2N)[C@H](O)[C@@H](O)[C@@H]1O [kanamycin, reference compound] |  |  |  |  |  |  |  | Growth inhibition of E. coli AB94012 (growth curve) (E. coli AB94012 [8]): inhibited the growth of E. coli AB94012; Catalase activity of the supernatant over time (E. coli AB94012 [9]): increasing catalase activity over time
Penicillin |  |  |  |  |  |  |  | MIC ([2]; P1374, methicillin resistant (MRSA) clinical isolate, repeated at least three times): 5000 µg/mL; MIC ([3]; P1386, methicillin resistant (MRSA) clinical isolate, repeated at least three times): 10000 µg/mL; MIC ([4]; P1389, penicillin resistant (PRSE) clinical isolate, repeated at least three times): 10000 µg/mL; MIC ([5]; P1111, penicillin sensitive (PSSE) clinical isolate, repeated at least three times): 25 µg/mL; MIC ([6]; P1381, methicillin resistant (MRSA) clinical isolate, repeated at least three times): 5000 µg/mL; MIC ([7]; P1383, penicillin resistant (PRSA) clinical isolate, repeated at least three times): 10000 µg/mL
